Where “and” joins values, the source holds several entries; their conditions need not be identical. Identical values can stand only once.
Legend:
[1] = test system: Klebsiella pneumoniae (ATCC 13883), phoE gene; assay: PMA-qPCR of bacteria grown with ciprofloxacin; type: cell-based; conditions: 1000 μg/mL ciprofloxacin, 3 and 24-hour treatments
Text: The samples underwent PMA treatment, followed by DNA extraction, as described in Example 2. A primer set specific for K. pneumoniae that targets the gene phoE, derived from Shannon et al (doi:10.1016/j.scitotenv. 2007.02.039) was used in conjunction with the samples in a qPCR reaction.

E. coli (UTI89) = assay: Mouse UTI model, ciprofloxacin treatment, urine culture and PMA-PCR; conditions: 10 mg/kg i.p. twice a day for 3 days from day 5 post-inoculation; urine one day after completion

SMILES: O=C(O)c1cn(C2CC2)c2cc(N3CCNCC3)c(F)cc2c1=O [ciprofloxacin, Ciprofloxacin]
- CT value of PMA-treated sample compared to non-PMA-treated equivalent [1]: greater CT
- groups of mice with no growth on non-selective LB agar (E. coli (UTI89)): 3 of 5 and 3 out of the 5

— patent US20230022779A1, “DETECTION OF VIABLE MICROORGANISMS IN URINE” (Children's National Medical Center, priority 2021, published 2023)
